Results: patent US6821927B1 (priority 1999, dated 2004)

Test: log P determination by HPLC (EEC directive 79/831 Annex V. A8)
Format: physicochemical
[1] = HPLC, gradient method, acetonitrile/0.1% aqueous phosphoric acid

CON=C(C(=O)N(C)OC)c1ccccc1Oc1ncnc(Oc2ccccc2Cl)c1F [Example 9]
chromatographic logP [1]: 3.5

CON=C(C(=O)OC)c1ccccc1Oc1ncnc(Oc2ccccc2Cl)c1F [Example (VI-1), Methyl 2-{2-[6-(2-chlorophenoxy)-5-fluoro-pyrimidin-4-yloxy]-phenyl}-2-methoxyiminoacetate]
chromatographic logP (HPLC): 3.61

CON=C(C(=O)N(C)O)c1ccccc1Oc1ncnc(Oc2cc(Cl)ccc2Cl)c1F [Example 6]
chromatographic logP [1]: 3.28

CON=C(C(=O)N(C)OC(C)=O)c1ccccc1Oc1ncnc(Oc2ccccc2Cl)c1F [Example 3, N-(Acetyloxy)-2-(2-{[6-(2-chlorophenoxy)-5-fluoro-4-pyrimidinyl]oxy}phenyl)-2-(methoxyimino)-N-methylacetamide]
chromatographic logP (HPLC (gradient method)): 3.52

CON=C(C(=O)N(C)O)c1ccccc1Oc1ncnc(Oc2ccccc2Cl)c1F [Example 1]
logP (HPLC): 2.82

CON=C(C(=O)N(C)O)c1ccccc1Oc1ncnc(Oc2cccc(Cl)c2C)c1F [Example 5]
chromatographic logP [1]: 3.29

CON=C(C(=O)N(C)O)c1ccccc1Oc1ncnc(Oc2cccc(Cl)c2Cl)c1F [Example 7]
chromatographic logP [1]: 3.22

CON=C(C(=O)N(C)O)c1ccccc1Oc1ncnc(Oc2ccccc2C#N)c1F [Example 8]
chromatographic logP [1]: 2.43

CON=C(C(=O)NO)c1ccccc1Oc1ncnc(Oc2ccccc2Cl)c1F [Example 2, 2-(2-{[6-(2-Chlorophenoxy)-5-fluoro-4-pyrimidinyl]oxy}phenyl)-N-hydroxy-2-(methoxyimino)-acetamide]
chromatographic logP (HPLC): 2.56

CON=C(C(=O)N(C)O)c1ccccc1Oc1ncnc(Oc2ccccc2F)c1F [Example 4]
chromatographic logP [1]: 2.66
